From patent US12595248B2, “PRMT5 inhibitors” (Merck Sharp & Dohme LLC, priority 2019, dated 2026)
pEC50: −log10 of the molar value.

Assays:
[1] = target: T1, PRMT5 (Homo sapiens, UniProt O14744); experiment: PRMT5 Cell Target Engagement (TE) Assay; format: cell-based; settings: MCF-7 cells, treated for 3 days, symmetric dimethylation of arginine (SDMA) by high content imaging
T1 construct: seeded with 4000 MCF-7 cells in 30 μl media; endogenous in cells; host or cells: MCF-7 cells
In short: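 Readout is single-cell nuclear symmetric-dimethylarginine immunofluorescence (Alexa488), normalized to DMSO-treated cells. Compounds were applied to MCF-7 cells for 3 days at 37 °C, top concentration 10000 nM in 1:3 steps over ten points; curves fitted with 4-parameter robust fit.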

[2] = target: T2, PRMT5-MEP50 enzyme complex (Homo sapiens, UniProt O14744); experiment: PRMT5-MEP50 Enzyme Methylation Assay (Version A); format: biochemical
T2 construct: Full-length (FL)-PRMT5-MEP50 enzyme complex (recombinant proteins from baculovirus-transfected Sf21 cells: FL-PRMT5; MW=73837 kDa and FL-MEP50; MW=38614); made in house; host or cells: baculovirus-transfected Sf21 cells
T2 sequence (O14744 whole entry): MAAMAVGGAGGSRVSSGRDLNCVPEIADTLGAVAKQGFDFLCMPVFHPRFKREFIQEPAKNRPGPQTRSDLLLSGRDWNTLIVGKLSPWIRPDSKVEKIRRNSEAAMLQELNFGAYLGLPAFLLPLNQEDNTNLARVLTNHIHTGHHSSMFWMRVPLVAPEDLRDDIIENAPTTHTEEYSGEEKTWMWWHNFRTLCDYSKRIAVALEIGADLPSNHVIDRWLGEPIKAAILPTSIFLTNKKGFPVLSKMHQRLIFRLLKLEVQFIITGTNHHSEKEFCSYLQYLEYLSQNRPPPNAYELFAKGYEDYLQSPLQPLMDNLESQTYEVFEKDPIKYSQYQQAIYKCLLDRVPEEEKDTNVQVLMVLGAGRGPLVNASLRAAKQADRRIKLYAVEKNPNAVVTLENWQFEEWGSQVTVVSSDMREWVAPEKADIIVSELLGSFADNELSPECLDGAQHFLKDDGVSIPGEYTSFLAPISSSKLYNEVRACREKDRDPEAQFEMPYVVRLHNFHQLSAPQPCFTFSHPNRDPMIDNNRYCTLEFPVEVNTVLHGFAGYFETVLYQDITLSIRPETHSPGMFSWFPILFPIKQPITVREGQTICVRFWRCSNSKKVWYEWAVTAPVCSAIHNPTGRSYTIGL
T2 sequence (Q9BQA1 whole entry partner): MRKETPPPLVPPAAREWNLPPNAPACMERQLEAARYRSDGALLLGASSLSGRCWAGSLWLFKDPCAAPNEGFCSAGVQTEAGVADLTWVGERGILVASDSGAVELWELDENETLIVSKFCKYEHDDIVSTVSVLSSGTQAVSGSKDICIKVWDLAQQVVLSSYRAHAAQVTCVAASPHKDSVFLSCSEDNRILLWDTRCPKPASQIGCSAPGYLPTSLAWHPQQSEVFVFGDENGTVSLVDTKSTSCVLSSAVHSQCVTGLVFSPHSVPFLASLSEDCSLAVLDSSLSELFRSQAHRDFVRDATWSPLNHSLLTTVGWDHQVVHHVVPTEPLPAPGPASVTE
Method: PRMT5-MEP50 Enzyme Methylation Assay (Version A)
PRMT5-MEP50 biochemical assay is a direct measurement of the methylation activity of the enzyme complex on a short peptide substrate derived from the N-terminus of H4 histone. Methylation experiment was performed with recombinant PRMT5-MEP50 protein complex. The assessment of inhibitory effect of small molecules was measured by the effectiveness of the compounds to inhibit this reaction (EC50).
In this assay, the potency (EC50) of each compound was determined from a twenty-point (1:2 serial dilution; top compound concentration of 100000 nM) titration curve using the following outlined procedure. To each well of a white ProxiPlus 384 well-plate, 100 nL of compound (1% DMSO in final assay volume of 10 μL) was dispensed, followed by the addition of 8 μL of 1× assay buffer (50 mM Bicine pH 8.0, 1 mM DTT, 0.004% Tween20, 0.01% BSA) containing 1.25 nM of Full-length (FL)-PRMT5-MEP50 enzyme complex (recombinant proteins from baculovirus-transfected Sf21 cells: FL-PRMT5; MW=[…] and FL-MEP50; MW=38614) and 1 μL of 150 μM S-(5′-Adenosyl)-L-Methionine Chloride (SAM). A plate was sealed and placed in a 37° C. humidified chamber for a 60 minutes pre-incubation with compound. Subsequently, each reaction was initiated by the addition of 1 μL 1× assay buffer containing 750 nM biotinylated H4R3 (MeI) peptide. The final reaction in each well of 10 μL consists of 1.0 nM PRMT5-MEP50, 75 nM biotinylated-peptide, and 15 μM SAM. Methylation reactions were allowed to proceed for 150 minutes in a sealed plate at 37° C. Reactions were immediately quenched by the addition of 1 μL of 5% formic acid. A plate was then frozen and shipped to SAMDI™ Tech Inc. to determine the percent conversion from H4R3 (MeI) to H4R3 (Me2). Dose-response curves were generated by plotting percent effect (% product conversion; Y-axis) vs. Log 10 compound concentrations (X-axis). EC50 values were determined by non-linear regression according to models for either sigmoidal (4 parameters) or biphasic (7 parameters) dose-response curves.

[3] = target: T2, PRMT5-MEP50 enzyme complex; experiment: PRMT5-MEP50 Enzyme Methylation Assay (Version B); format: biochemical
In short: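 Recombinant full-length PRMT5-MEP50 (0.5 nM, Sf21-expressed) pre-incubated 30 min at 37 °C with compound (20-point, 1:2, top 100000 nM), then reacted 150 min at 37 °C with 75 nM biotinylated H4R3 peptide and 15 μM SAM in Bicine pH 8.0. Formic acid quench; SAMDI MS conversion to Me2; EC50 by sigmoidal or biphasic fit.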

[4] = only one EC50 shown: 4 parameters single site sigmoidal model, 60 min pre-incubation with SAM, read-out: Enzyme Methylation Assay Version A (EC50)
[5] = first of two EC50s: 7 parameters biphasic model, read-out: Enzyme Methylation Assay Version B (EC50_1)
[6] = second of two EC50s: 7 parameters biphasic model, read-out: Enzyme Methylation Assay Version B (EC50_2)
[7] = only one EC50 shown: 4 parameters single site sigmoidal model, 30 min pre-incubation, read-out: Enzyme Methylation Assay Version B (EC50)

T1 sequence (O14744 whole entry): as the sequence (O14744 whole entry) above
T1 sequence (Q9BQA1 whole entry partner): as the sequence (Q9BQA1 whole entry partner) above

Row | SMILES | pEC50 [1] | pEC50 [2, 4] | pEC50 ([2]; first of two EC50s: 7 parameters biphasic model, read-out: Enzyme Methylation Assay Version A (EC50_1)) | pEC50 ([2]; second of two EC50s: 7 parameters biphasic model, read-out: Enzyme Methylation Assay Version A (EC50_2)) | pEC50 [3, 5] | pEC50 [3, 6] | pEC50 [3, 7]
1 | CC(C)(C)OC(=O)N1C2CCC1CC(Nc1cc(C(=O)N3CC[C@H](N4CCc5ccccc5C4)[C@@H](O)C3)c(F)cn1)C2 (stereo partly drawn) [Example 104, tert-butyl-3-((4-((3S,4S)-4-(3,4-dihydroisoquinolin-2(1H)-yl)-3-hydroxypiperidine-1-carbonyl)-5-fluoropyridin-2-yl)amino)-8-azabicyclo[3.2.1]octane-8-carboxylate] | 7.38 | 8.77 | – | – | – | – | –
2 | Cc1cc(Cl)c2nc(C(=O)N3CC[C@H](N4CCc5ccccc5C4)[C@@H](O)C3)cn2c1 [Example 136, (8-chloro-6-methylimidazo[1,2-a]pyridin-2-yl)[(3S,4S)-4-(3,4-dihydroisoquinolin-2(1H)-yl)-3-hydroxypiperidin-1-yl]methanone] | 7.30 | – | 8.92 | 7.10 | – | – | –
3 | O=C(c1cn2cc(Cl)ccc2n1)N1CC[C@H](N2CCc3ccccc3C2)[C@@H](O)C1 [Example 132, (6-chloroimidazo[1,2-a]pyridin-2-yl)[(3S,4S)-4-(3,4-dihydroisoquinolin-2(1H)-yl)-3-hydroxypiperidin-1-yl]methanone] | 7.49 | 8.49 | – | – | – | – | –
4 | Cn1nccc1-c1cnc2nc(C(=O)N3CC[C@H](N4CCc5ccccc5C4)[C@@H](O)C3)cn2c1 [Example 57, [(3S,4S)-4-(3,4-dihydroisoquinolin-2(1H)-yl)-3-hydroxypiperidin-1-yl][6-(1-methyl-1H-pyrazol-5-yl)imidazo[1,2-a]pyrimidin-2-yl]methanone] | 8.06 | 8.96 | – | – | – | – | –
5 | CC1(C)CC1(C#N)c1cnc2nc(C(=O)N3CC[C@H](N4CCc5ccccc5C4)[C@@H](O)C3)cn2c1 (single isomer, unassigned) [Example 128] | 8.96 | 9.52 | – | – | – | – | –
6 | O=C(c1ccc(OCC(F)(F)F)nc1)N1CCC(N2Cc3ccccc3C(F)(F)C2)C(O)C1 (single isomer, unassigned) [Example 26, (-4-(4,4-difluoro-3,4-dihydroisoquinolin-2(1H)-yl)-3-hydroxypiperidin-1-yl)(6-(2,2,2-trifluoroethoxy)pyridin-3-yl)methanone] | < 5.00 | – | – | – | – | – | 4.82
7 | CCC1Oc2ccc(C(=O)N3CC[C@H](N4CCc5ccccc5C4)[C@@H](O)C3)cc2NC1=O (single isomer, unassigned) [Example 10] | 6.92 | – | – | – | 8.19 | 5.33 | –
8 | Cc1ccc2c(c1)CCN([C@@H]1CCN(C(=O)c3ccc(OCC(F)(F)F)nc3)C[C@H]1O)C2 [Example 5, ((3R,4R)-3-hydroxy-4-(6-methyl-3,4-dihydroisoquinolin-2(1H)-yl)piperidin-1-yl)(6-(2,2,2-trifluoroethoxy)pyridin-3-yl)methanone] | < 5.00 | – | – | – | – | – | 5.85
9 | CC(=O)N1CCC(Nc2cc(C(=O)N3CCC(N4Cc5ccccc5C(F)(F)C4)C(O)C3)c(Cl)cn2)CC1 (single isomer, unassigned) [Example 25, l-(4-((5-chloro-4-(-4-(4,4-difluoro-3,4-dihydroisoquinolin-2(1H)-yl)-3-hydroxypiperidine-1-carbonyl)pyridin-2-yl)amino)piperidin-1-yl)ethan-1-one] | < 5.00 | – | – | – | 6.08 | 4.47 | –
10 | CC1OC(=O)Nc2cc(C(=O)N3CC[C@H](N4CCc5ccccc5C4)[C@@H](O)C3)ccc21 (single isomer, unassigned) [Example 94] | 5.34 | – | – | – | ~6.54 | < 4.00 | –
11 | CC1(C)CC(=O)Nc2cc(C(=O)N3CC[C@@H](N4CCc5ccccc5C4)[C@H](O)C3)ccc21 [Example 95, 7-((3R,4R)-4-(3,4-dihydroisoquinolin-2(1H)-yl)-3-hydroxypiperidine-1-carbonyl)-4,4-dimethyl-3,4-dihydroquinolin-2(1H)-one] | 5.57 | – | – | – | ~7.21 | 4.40 | –
12 | O=C(c1cn2c(n1)CCC(C(F)(F)F)C2)N1CC[C@H](N2CCc3ccccc3C2)[C@@H](O)C1 (single isomer, unassigned) [Example 82] | 7.00 | – | – | – | ~8.10 | 5.21 | –

Now from value to compound:

Row | pEC50 [1] | pEC50 [2, 4] | pEC50 ([2]; first of two EC50s: 7 parameters biphasic model, read-out: Enzyme Methylation Assay Version A (EC50_1)) | pEC50 ([2]; second of two EC50s: 7 parameters biphasic model, read-out: Enzyme Methylation Assay Version A (EC50_2)) | pEC50 [3, 5] | pEC50 [3, 6] | pEC50 [3, 7] | SMILES
13 | 8.42 | 8.89 | – | – | – | – | – | O=C(c1cc(NC2CCN(C(=O)C3CC3)CC2)ncc1F)N1CC[C@H](N2CCc3ccccc3C2)[C@@H](O)C1 [Example 108, (2-((1-(cyclopropanecarbonyl)piperidin-4-yl)amino)-5-fluoropyridin-4-yl)((3S,4S)-4-(3,4-dihydroisoquinolin-2(1H)-yl)-3-hydroxypiperidin-1-yl)methanone]
14 | 7.77 | 8.39 | – | – | – | – | – | CC(=O)N1CC[C@@H](CNc2cc(C(=O)N3CC[C@H](N4CCc5ccccc5C4)[C@@H](O)C3)c(F)cn2)C1 [Example 123, 1-((S)-3-(((4-((3S,4S)-4-(3,4-dihydroisoquinolin-2(1H)-yl)-3-hydroxypiperidine-1-carbonyl)-5-fluoropyridin-2-yl)amino)methyl)pyrrolidin-1-yl)ethan-1-one]
15 | 7.82 | 8.46 | – | – | – | – | – | CC(=O)N1CC2CC1CC2Nc1cc(C(=O)N2CC[C@H](N3CCc4ccccc4C3)[C@@H](O)C2)c(F)cn1 (single isomer, unassigned) [Example 119]
16 | 8.11 | – | – | – | 7.96 | 5.05 | – | CC(=O)N1CCC(Nc2cc(C(=O)N3CC[C@H](N4CCc5ccccc5C4)[C@@H](O)C3)c(Cl)cn2)CC1 [Example 49, 1-{4-[(5-chloro-4-{[(3S,4S)-4-(3,4-dihydroisoquinolin-2(1H)-yl)-3-hydroxypiperidin-1-yl]carbonyl}pyridin-2-yl)amino]piperidin-1-yl}ethanone]
17 | < 5.00 | – | – | – | – | – | 5.32 | CC(=O)N1CCC(Nc2cc(C(=O)N3C[C@H]4C[C@@H]3C(O)C4N3CCc4ccccc4C3)c(F)cn2)CC1 (single isomer, unassigned) [Example 30]
18 | 5.24 | – | – | – | 6.80 | 4.08 | – | CC(=O)N1CCC(Nc2nccc(C(=O)N3CC[C@@H](N4CCc5ccccc5C4)[C@H](O)C3)c2F)C(F)(F)C1 (single isomer, unassigned) [Example 16]
19 | 5.51 | – | – | – | ~7.12 | 4.43 | – | CC(=O)N1CCC(Nc2cc(C(=O)N3CC[C@@H](N4CCc5ccccc5C4)[C@H](O)C3)c(F)cn2)CC1 [Example 3, 1-(4-((4-((3R,4R)-4-(3,4-dihydroisoquinolin-2(1H)-yl)-3-hydroxypiperidine-l-carbonyl)-5-fluoropyridin-2-yl)amino)piperidin-l-yl)ethan-l-one]
20 | 8.21 | – | – | – | 8.72 | 6.30 | – | CCOC(=O)N1CCC(Nc2cc(C(=O)N3CC[C@H](N4CCc5ccccc5C4)[C@@H](O)C3)c(F)cn2)CC1 [Example 106, ethyl 4-((4-((3S,4S)-4-(3,4-dihydroisoquinolin-2(1H)-yl)-3-hydroxypiperidine-1-carbonyl)-5-fluoropyridin-2-yl)amino)piperidine-1-carboxylate]
21 | 7.23 | – | – | – | 8.07 | 5.14 | – | CC(=O)N1CCC(Nc2cc(C(=O)N3CC[C@H](N4CCc5ccccc5C4)[C@@H](O)C3)c(F)cn2)C(F)(F)C1 (single isomer, unassigned) [Example 87]
